Test results: patent publication US20250114362A1, “METHODS AND COMPOSITIONS FOR TREATMENT OF CUTANEOUS PROLIFERATIVE DISORDERS AND OTHER SKIN CONDITIONS” (ASYMMETRIC THERAPEUTICS, LLC, priority 2022, published 2025)
Where “and” joins values, the source holds several entries; their conditions need not be identical. Equal values may be shown once.

What was measured:
HaCaT cells = experiment: M5 cocktail psoriasis-like HaCaT keratinocyte model, live and dead cell numbers by MultiTox-Glo Multiplex Cytotoxicity Assay
Description: Immortalized human keratinocytes (HaCaT cells) purchased from AddexBio (San Diego, CA) were maintained in vitro in Dulbecco's modified Eagle's medium (DMEM) supplemented with 10% Fetal Bovine Serum (FBS) and antibiotics (100 U/mL penicillin and […] streptomycin) and cultured in an incubator with 5% CO2 at 37° C.
HaCaT cells were seeded at approximately 50% density (1×10^4 cells/well) and after 16 h the medium was replaced with 50 μL of pre-treatment medium containing different concentrations of allopurinol (0, 0.5, or 3 mM) or methotrexate (1 μM) and placed back into the incubator. Treatment media was prepared using standard media containing vehicle control (PBS) or M5 cocktail.
Other HaCaT cells were incubated in vitro for 72 hours in the presence of a M5 composition that also included 1.0 μM methotrexate, 0.5 mM allopurinol, 3.0 mM allopurinol, 0.5 mM oxypurinol, or 3.0 mM oxypurinol.
The number of live and dead cells were determined by the MultiTox-Glo Multiplex Cytotoxicity Assay (Promega, Madison WI) according to the manufacturer's protocol. A dilution series of cells was used to generate a standard curve for calculation of cell number in each well. The total number of cells was the sum of the live and dead cells.

IL17A = experiment: MatTek PSE culture system, IL17A mRNA by qPCR; assay type: cell-based, human; conditions: 100 nM; after two days of treatment
Description: (§1) Other markers of cell proliferation were also measured, namely (protein p21), and four markers of inflammatory signaling (IL17A, IL23A, TNF-α, and transforming growth factor beta (TGF-β)) in the MatTek PSE culture system after two days of treatment were also determined. Ki67 is a nuclear protein and a replication marker. The marker levels were determined by isolating total RNA by a Promega SV96 Total RNA Isolation Vacuum System (Promega, Madison, WI) according to the manufacturer's instructions. The total RNA was reverse transcribed using an ABI High Capacity cDNA reverse transcription kit (Applied Biosystems, Foster City, CA). Quantitative real-time polymerase chain reaction (qPCR) was performed with the use of a SYBR Green PCR Master Mix (Applied Biosystems) according to the manufacturer's protocol and amplified on a StepOnePlus Real-Time PCR System.

[1] = test system: MatTek human PSE culture system (SOR-300-FT); experiment: MatTek human PSE culture system, tissue layer thickness and histology; conditions: 100 nM
Description: The thickness of each of the three tissue layers of skin was monitored and measured after two days and after six days of exposure to the treatment medium in a blinded fashion by a board-certified and nationally respected pathologist.

p21/Ki67 = experiment: MatTek PSE culture system, ratio of p21 to Ki67 mRNA levels; assay type: cell-based, human; conditions: after two days of treatment; treatment compositions of Table 5
Description: Ki67 is a replication marker for cells and the lower the value, the lower the replication rate. P21 is a protein which is a marker for the inhibition of cell proliferation. Thus, an increased ratio of P21/Ki67 indicates decreased cell replication. FIG. 9 illustrates this ratio under several conditions as described in Example 2.
as §1
To highlight effects on cell proliferation, the ratio of p21 to Ki67 mRNA levels were calculated, with the results being shown in FIG. 9.

p21 = experiment: MatTek PSE culture system, p21 mRNA by qPCR; assay type: cell-based, human; conditions: 100 nM; after two days of treatment
Description: as §1

TGF-β = experiment: MatTek PSE culture system, TGF-β mRNA by qPCR; assay type: cell-based, human; conditions: 100 nM; after two days of treatment
Description: as §1

IL23A = experiment: MatTek PSE culture system, IL23A mRNA by qPCR; assay type: cell-based, human; conditions: 100 nM; after two days of treatment
Description: as §1

TNF-α = experiment: MatTek PSE culture system, TNF-α mRNA by qPCR; assay type: cell-based, human; conditions: 100 nM; after two days of treatment
Description: as §1

Ki67 = experiment: MatTek PSE culture system, Ki67 level by PCR; assay type: cell-based, human; conditions: 100 nM
Description: The level of Ki67 in the MatTek tissue culture system was also determined. Ki67 is a nuclear protein and a replication marker. The level of Ki67 was determined by polymerase chain reaction (PCR) analysis with standard protocols. The relative levels are normalized with respect to the measured Ki67 level of the control at Day 0, which is adjusted to 1.0.
as §1

[2] = 1.0 μM, 0 hours (baseline), M5 cocktail, ± standard deviation
[3] = 1.0 μM, 0 hours (baseline), relative to 9177 live cells at zero hours
[4] = 1.0 μM, 48 hours, M5 cocktail, ± standard deviation
[5] = 1.0 μM, 48 hours, relative to 9177 live cells at zero hours
[6] = 1.0 μM, 72 hours, M5 cocktail, ± standard deviation
[7] = 1.0 μM, 72 hours, relative to 9177 live cells at zero hours

CN(Cc1cnc2nc(N)nc(N)c2n1)c1ccc(C(=O)N[C@@H](CCC(=O)O)C(=O)O)cc1 [methotrexate]
Cell Counts, 0 hours, Dead (HaCaT cells; [2]): 801 ± 19
Cell Counts, 0 hours, Live (HaCaT cells; [2]): 9177 ± 90
Cell Ratios, 0 hours, Dead (HaCaT cells; [3]): 0.087
Cell Ratios, 0 hours, Total (HaCaT cells; [3]): 1.087
Cell Counts, 48 hours, Dead (HaCaT cells; [4]): 4826 ± 464
Cell Counts, 48 hours, Total (HaCaT cells; [4]): 11194 ± 545
Cell Ratios, 48 hours, Dead (HaCaT cells; [5]): 0.526
Cell Ratios, 48 hours, Total (HaCaT cells; [5]): 1.220
Cell Counts, 72 hours, Dead (HaCaT cells; [6]): 6300 ± 289
Cell Counts, 72 hours, Total (HaCaT cells; [6]): 11587 ± 593
Cell Ratios, 72 hours, Dead (HaCaT cells; [7]): 0.69 and 0.686
Cell Ratios, 72 hours, Total (HaCaT cells; [7]): 1.26 and 1.263

O=c1[nH]c(=O)c2c[nH]nc2[nH]1 [oxypurinol]
Cell Counts, 0 hours, Live (HaCaT cells; 0.5 mM, 0 hours (baseline), M5 cocktail, ± standard deviation): 9177 ± 90
Cell Ratios, 0 hours, Total (HaCaT cells; 0.5 mM, 0 hours (baseline), relative to 9177 live cells at zero hours): 1.087
Cell Counts, 48 hours, Total (HaCaT cells; 0.5 mM, 48 hours, M5 cocktail, ± standard deviation): 14960 ± 100
Cell Ratios, 48 hours, Total (HaCaT cells; 0.5 mM, 48 hours, relative to 9177 live cells at zero hours): 1.630
Cell Counts, 72 hours, Total (HaCaT cells; 0.5 mM, 72 hours, M5 cocktail, ± standard deviation): 17036 ± 222
Cell Ratios, 72 hours, Total (HaCaT cells; 0.5 mM, 72 hours, relative to 9177 live cells at zero hours): 1.86 and 1.856
Cell Counts, 0 hours, Live (HaCaT cells; 3.0 mM, 0 hours (baseline), M5 cocktail, ± standard deviation): 9177 ± 90
Cell Ratios, 0 hours, Total (HaCaT cells; 3.0 mM, 0 hours (baseline), relative to 9177 live cells at zero hours): 1.087
Cell Counts, 48 hours, Total (HaCaT cells; 3.0 mM, 48 hours, M5 cocktail, ± standard deviation): 13069 ± 142
Cell Ratios, 48 hours, Total (HaCaT cells; 3.0 mM, 48 hours, relative to 9177 live cells at zero hours): 1.424
Cell Counts, 72 hours, Total (HaCaT cells; 3.0 mM, 72 hours, M5 cocktail, ± standard deviation): 14228 ± 282
Cell Ratios, 72 hours, Total (HaCaT cells; 3.0 mM, 72 hours, relative to 9177 live cells at zero hours): 1.55
Cell Counts, 0 hours, Dead (HaCaT cells; human, 0 h, 0.5 mM): 801 ± 19
Cell Ratios, 0 hours, Dead (HaCaT cells; human, 0 h, 0.5 mM): 0.087
Cell Counts, 0 hours, Dead (HaCaT cells; human, 0 h, 3 mM): 801 ± 19
Cell Ratios, 0 hours, Dead (HaCaT cells; human, 0 h, 3 mM): 0.087
Cell Counts, 48 hours, Dead (HaCaT cells; human, 48 h, 0.5 mM): 2937 ± 65
Cell Ratios, 48 hours, Dead (HaCaT cells; human, 48 h, 0.5 mM): 0.320
Cell Counts, 48 hours, Dead (HaCaT cells; human, 48 h, 3 mM): 2508 ± 124
Cell Ratios, 48 hours, Dead (HaCaT cells; human, 48 h, 3 mM): 0.273
Cell Counts, 72 hours, Dead (HaCaT cells; human, 72 h, 0.5 mM): 4761 ± 200
Cell Counts, 72 hours, Dead (HaCaT cells; human, 72 h, 3 mM): 3691 ± 244

Vitamin D
Relative Expression Levels, IL17A (IL17A): 0.06 ± 0.03
Layer Thickness, Dermis ([1]; 2 days): 0.25 mm
Layer Thickness, Epidermis ([1]; 2 days): 0.15 mm
Layer Thickness, Stratum Corneum ([1]; 2 days): 0.05 mm
Layer Thickness, Dermis ([1]; 6 days): 0.2 mm
Layer Thickness, Epidermis ([1]; 6 days): 0.2 mm
Layer Thickness, Stratum Corneum ([1]; 6 days): 0.2 mm
p21/Ki67 ratio (mRNA levels) (p21/Ki67): markedly increased
Relative Expression Levels, p21 (p21): 5.10 ± 0.70
Relative Expression Levels, TGF-β (TGF-β): 0.35 ± 0.09
Relative Expression Levels, IL23A (IL23A): 0.45 ± 0.07
Relative Expression Levels, TNF-α (TNF-α): 0.48 ± 0.17
Relative Ki67 Level (Ki67; Day 6, normalized to control at Day 0 = 1.0): 1.99
Relative Expression Levels, Ki67 (Ki67; after two days of treatment): 0.34 ± 0.01
